In PMC4336331, “Novel Receptor-Derived Cyclopeptides to Treat Heart Failure Caused by Anti-β1-Adrenoceptor Antibodies in a Human-Analogous Rat Model” (PLoS ONE, 2015):
Like-named read-outs stand apart in the source and are kept apart here. Peptide text beside a SMILES is read from it.

Assays:
[1] = Half-life of β1EC2-peptides in rat whole blood ex vivo
[2] = test system: β1-AR mRNA; assay: qRT-PCR of cardiac β1-AR mRNA, therapy-study; assay type: in vivo, Lewis/CrlBR rats; details: qRT-PCR normalised to GAPDH (Fig. 4C)
[3] = test system: anti-β1EC2-induced heart failure (β1EC2/GST-FP-immunised rats); assay: Left heart catheterisation (haemodynamics), therapy-study; assay type: in vivo, Lewis/CrlBR rats; details: LV catheterisation month 20, mean ±SEM
Experimental: (§1) In brief, n = 76 two months old Lewis/CrlBR rats were either s.c. immunised with 50 μg β1EC2/GST-FP, or n = 38 rats were control-injected with 0.9% NaCl (t = 0). To maintain high anti-β1EC2-titers, all immunised rats were boosted with β1EC2/GST-FP (or 0.9% NaCl) every month over 20 months as previously described. Application of the different linear or cyclic β1-AR peptides (corresponding to the primary AA-sequence of either the first (β1EC1) or the 2nd extra-cellular β1-AR loop (β1EC2)) or the β1-receptor blocker bisoprolol was initiated either 6 weeks after the 1st immunisation (i.e. 15 days after the 1st boost, prevention-study), or 8.5 months after the 1st immunisation (therapy-study).

[4] = test system: anti-β1EC2-induced heart failure (β1EC2/GST-FP-immunised rats); details: therapy-study, end of study, mean ±SEM
Experimental: as §1
From paraffin-embedded heart preparations cavity- and wall-dimensions were determined by computer-aided analysis of H&E-stained mid-ventricular 2μm-sections as previously described. H&E-stained paraffin-sections also served to quantify damaged and fibrotic cardiac areas (scars). For detection of mast cells, deparaffinised cardiac sections were stained with acidified (pH<2.5) toluidine blue 0.1% (Sigma). The number of toluidine-positive cells was normalized to square millimeter of cardiac tissue. TUNEL-positive cells were quantified in 2μm mid-ventricular paraffin-sections using a TMR Red in Situ Death Detection Kit (Roche, Basel, Switzerland). Only the total number of TUNEL-postive cells/section was determined without further differentiation of the specific apoptotic cell type (e.g., fibroblasts, endothelial cells, cardiomyocytes).

[5] = test system: anti-β1EC2-induced heart failure (β1EC2/GST-FP-immunised rats); assay: Heart histology (fibrotic scars, TUNEL, mast cells), therapy-study; assay type: in vivo, Lewis/CrlBR rats
From the text: Fig 3 Histology of rat hearts (therapy-study). (A) Representative H&E-stained 2μm cross-sections of hearts (from the left to the right) from a control rat, an immunised untreated rat, a bisoprolol- and a β1EC2-CP mono-treated rat, and a β1EC2-CP/bisoprolol co-treated rat. (B) Quantification of fibrotic scars in midventricular 2μm-sections (mvhs, mid-ventricular heart-section). Columns ± error bars represent the mean number of fibrotic scars ±SEM per 3 heart sections in the indicated groups. (C) TUNEL-assay with 2μm-mvhs. Columns ± error bars represent mean numbers ±SEM of apoptotic cells (kind of cells not specified) /3 mvhs. (D) qRT-PCR of apical cardiac tissues. Columns ± error bars represent the expression of the indicated pro-fibrotic markers ±SEM in the indicated treatment-groups normalised to controls. (E) Mast cells in 2μm paraffin-mvhs from the indicated treatment-groups; columns ± error bars represent the mean numbers ±SEM of mast cells/mm^2 cardiac tissue. For all parameters shown, differences between the treatment-groups were assessed by […] one way ANOVA and Dunnett`s post-hoc test; *p<0.05; **p<0.001.

[6] = test system: anti-β1EC2-induced heart failure (β1EC2/GST-FP-immunised rats); assay: Echocardiography and catheterisation, cardiomyopathic phenotype, therapy-study; assay type: in vivo, Lewis/CrlBR rats; details: echocardiography and catheterisation (Fig. 2G, H; S2 Fig.)
Experimental: as §1
In brief, the rats were lightly anaestetised (30 mg/kg ketamine-HCl and 5 mg/kg xylazine i.p.), shaved (chest), and placed supine on a special table. M-mode tracings were recorded at baseline (before immunisation), and subsequently every four months in the parasternal long and short axis views according to the guidelines of the American Society for Echocardiography. Pulsed-wave Doppler spectra were recorded from the apical five-chamber view and the velocity-time integral (VTI) of the transaortic flow served to calculate cardiac output (CO [ml/min] = Aortic VTI x (π [LV-outflow tract diameter/2]^2) x bpm).

[7] = test system: anti-β1EC2-antibodies; assay: Free anti-β1EC2-titers by ELISA, therapy-study; assay type: in vivo, Lewis/CrlBR rats; details: for decline in anti-β1EC2-titers: 1.0 mg/kg i.v. every 4 weeks, irrespective of bisoprolol co-treatment (Fig. 2F)
Experimental: as §1
(TIF) Click here for additional data file.

[8] = test system: anti-β1EC2-induced heart failure (β1EC2/GST-FP-immunised rats); assay: Relative organ wet weights and body weight, therapy-study; details: month 20, mean ±SEM
Experimental: as §1
After the hearts all other relevant inner organs (e.g., lung, liver, spleen, kidneys, brain, and eyes) were removed, rinsed with ice-cold PBS, weighed, sectioned, and fixed for further histologic analysis.

[9] = immunised anti-β1EC2-positive rats, from 8.5 months after 1st immunisation peptides 1.0 mg/kg i.v. every 4 weeks, bisoprolol 15 mg/kg/day orally, over 12 months
[10] = non-immunised 0.9% NaCl-injected rats, EC2-CP 1.0 mg/kg i.v. every 4 weeks or bisoprolol 15 mg/kg/day orally over 12 months

CC(C)[C@@H]1NC(=O)[C@H](Cc2ccccc2)NC(=O)[C@H](CC(=O)O)NC(=O)[C@H](CS)NC(=O)[C@H](CS)NC(=O)[C@H](CCCCN)NC(=O)[C@@H]2CCCN2C(=O)[C@H](CC(=O)O)NC(=O)[C@H](CC(N)=O)NC(=O)[C@H](Cc2ccc(O)cc2)NC(=O)[C@H](CS)NC(=O)[C@H](CCCNC(=N)N)NC(=O)[C@H](CCCNC(=N)N)NC(=O)[C@H](C)NC(=O)[C@H](CCC(=O)O)NC(=O)[C@H](CC(=O)O)NC(=O)[C@H](CO)NC(=O)[C@H](CCC(=O)O)NC(=O)[C@H](C)NC(=O)[C@H](CCCNC(=N)N)NC(=O)[C@H](C)NC(=O)[C@H](CCC(N)=O)NC(=O)CNC(=O)[C@H](CCCNC(=N)N)NC(=O)[C@H](CC(N)=O)NC(=O)[C@H]([C@@H](C)O)NC1=O [β1EC2-CP] (cyclo(AESDEARRCYNDPKCCDFVTNRGQAR))
Half-life in whole blood, in words ([1]; ex vivo incubation experiments with whole blood (Fig. 1G)): days | half-life ([1]; rat, whole blood): 20.2 days | cardiac β1-AR mRNA-levels, in words [2]: returned to normal levels | -dP/dt (relaxation) [3, 9]: 5228 ±166 mmHg/s | HF (heart frequence) [3, 9]: 217 ±3 bpm | LVEDP (LV end-diastolic pressure) [3, 9]: 10.0 ± 1.0 mmHg | LVSP (maximal systolic LV-pressure) [3, 9]: 126 ±4 mmHg | -dP/dt (relaxation) [3, 10]: 5502 ±248 mmHg/s | HF (heart frequence) [3, 10]: 221 ±7 bpm | LVEDP (LV end-diastolic pressure) [3, 10]: 9.2 ± 1.1 mmHg | LVSP (maximal systolic LV-pressure) [3, 10]: 121 ±8 mmHg | IVS (thickness of the inter-ventricular septum) [4, 9]: 1.7 ±0.1 mm | LVA (total LV-area) [4, 9]: 65.2 ±2.5 mm2 | LVCA (LV-cavity area) [4, 9]: 25.6 ±1.0 mm2 | LVWA (LV wall area) [4, 9]: 39.6 ±1.7 mm2 | PW (posterior wall thickness) [4, 9]: 1.8 ±0.1 mm | IVS (thickness of the inter-ventricular septum) [4, 10]: 1.7 ±0.1 mm | LVA (total LV-area) [4, 10]: 57.4 ±0.7 mm2 | LVCA (LV-cavity area) [4, 10]: 21.3 ±0.1 mm2 | LVWA (LV wall area) [4, 10]: 36.1 ±0.7 mm2 | PW (posterior wall thickness) [4, 10]: 1.9 ±0.1 mm | number of myocardial fibrotic scars, in words ([5]; midventricular 2μm-sections (Fig. 3A and B)): returned to normal levels | TUNEL-positive apopotic cells, in words ([5]; midventricular 2μm-sections (Fig. 3C)): returned to normal levels | increase in cardiac mast cells, in words ([5]; toluidine blue, mono- or co-treatment (Fig. 3E)): reversed to control levels | cardiomyopathic phenotype, in words [6]: almost fully reversed | decline in anti-β1EC2-titers ([7]; after 4–5 injections): > 90% | decline in anti-β1EC2-titers ([7]; after two injections): > 70% | steady state antibody-levels in % of the titers at initiation of therapy ([7]; despite monthly antigen-boosts): less than 15% | Heart, relative (wet) weight [8, 9]: 2.20 ± 0.09 mg/g | Kidney L, relative (wet) weight [8, 9]: 2.29 ± 0.06 mg/g | Kidney R, relative (wet) weight [8, 9]: 2.25 ± 0.05 mg/g | Liver, relative (wet) weight [8, 9]: 19.83 ± 0.50 mg/g | Lung, relative (wet) weight [8, 9]: 2.26 ± 0.16 mg/g | Spleen, relative (wet) weight [8, 9]: 1.23 ± 0.04 mg/g | Weight (body weight) [8, 9]: 673 ± 12 g | Heart, relative (wet) weight [8, 10]: 2.15 ± 0.08 mg/g | Kidney L, relative (wet) weight [8, 10]: 2.19 ± 0.08 mg/g | Kidney R, relative (wet) weight [8, 10]: 2.22 ± 0.08 mg/g | Liver, relative (wet) weight [8, 10]: 18.9 ± 0.55 mg/g | Lung, relative (wet) weight [8, 10]: 2.08 ± 0.07 mg/g | Spleen, relative (wet) weight [8, 10]: 1.18 ± 0.03 mg/g | Weight (body weight) [8, 10]: 695 ± 27 g
